The values below come from US20050209147A1, “Peptide inhibitors of RhoA signaling” (The Board of Trustees of the Leland Stanford Junior …, priority 2004, published 2005).

For assay [1], the target named is T1, RhoA binding to Citron-RBD (Homo sapiens, UniProt O14578).
T1 sequence (O14578 1091-1302 limits assumed): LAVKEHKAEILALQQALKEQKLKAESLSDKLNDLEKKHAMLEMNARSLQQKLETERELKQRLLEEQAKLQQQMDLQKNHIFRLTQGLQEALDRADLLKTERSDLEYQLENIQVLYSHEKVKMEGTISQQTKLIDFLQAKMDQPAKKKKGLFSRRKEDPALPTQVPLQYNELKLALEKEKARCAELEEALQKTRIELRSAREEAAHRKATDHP
Nature of the assay: Affinity-precipitation (pull-down) of GTP-Val14-RhoA with Citron GST-RBD. The settings on record: 20 μg of domain, anti-RhoA immunoblot. The method, then: (§1) Specificity of RhoA fusion domains and measurement of RhoA activation. The specificity of P1-RhoA fusion domains was evaluated by affinity-precipitation assay using the rho-binding domain (RBD) from Citron, Rhotekin and ROCK. Recombinant Val14-RhoA was loaded with 1 mM GTP at 37° C. for 90 min. 10 μg of Citron, Rhotekin or ROCK GST-RBD conjugated with glutathione beads were mixed with 5 μg of GTP-Val14-RhoA in […] of 50 mM Tris-HCl (pH 7.4), 5 mM MgCl2, 0.5 mM GTP, 2 mg/ml BSA (binding buffer). Binding was for 60 min. at 15° C. The beads were washed twice with binding buffer and subjected to SDS-polyacrylamide gel electrophoresis on a 12% gel. RhoA background binding to glutathione beads was negligible. In case of experiments in presence of P1-RhoA fusion domains, the domains were previously dissolved in binding buffer at 1 mg/ml.
In general terms: In western blotting, separated proteins are transferred to a membrane and probed.

Assay [2] deals with CCL21-induced LFA-1-dependent lymphocyte adhesion to ICAM-1. Nature of the assay: In vitro rapid adhesion assay on ICAM-1. Type of assay: cell-based, mouse. The settings on record: 1 μM CCL21; for rapid adhesion induced by CCL21 on high density of ICAM-1: high density of ICAM-1 (˜5000 sites/μm^2); for rapid adhesion induced by CCL21 on low density of ICAM-1: low density of ICAM-1 (−500 sites/μm^2). Here is the method:
In vitro rapid adhesion assay on ICAM-1. ICAM-1 was purified from mouse spleens and adhesion assays were performed as previously reported. Briefly, primary naïve lymphocytes (about 70% T-, 30% B-cells) were isolated from peripheral and mesenteric lymph nodes and Peyer's patches from young BALB/c mice (Harlan, Italy). Adhesion assays were performed on eighteen well glass slides coated overnight at 4° C. with purified mouse ICAM-1; site density per square micrometer of immobilized ICAM-1 was calculated as reported.

The test system of assay [3] is LFA-1 lateral mobility. Nature of the assay: LFA-1 distribution on plasma membrane (confocal microscopy). The format is cell-based, mouse. The note with it: 1 μM CCL21 2 min. Here is the method:
Evaluation of LFA-1 distribution on plasma membrane. Analysis and quantification of chemokine-induced LFA-1 surface distribution was determined by confocal microscopy, following the same procedure previously described. Briefly, lymphocytes were stimulated in suspension under stirring and then immediately fixed in 1% ice-cold paraformaldehyde in PBS, pH 7.4, for 10 min. Cell were washed and incubated with 10 μg/ml of TIB213 rat anti-mouse LFA-1 (ATCC) for 30 min on ice, washed 3 times and then incubated 30 min with Texas Red-conjugated goat anti-rat secondary antibody. The washed cells adhered for 30 min at 4° C. on 0.1% poly-L-lysine coated round 13 mm glass coverslips and were analyzed with a Carl Zeiss LSM 510 confocal imaging system, with a 63×C-Apochromat objective (NA 1.2). Definition and quantitative analysis of “disperse” and “clustered” morphologies of LFA-1 distribution was as previously described.

Assay [4] has as its system ζ PKC translocation to the plasma membrane. As to the kind of experiment: ζ PKC intracellular distribution (sucrose gradient, immunoblot). The format is cell-based. The settings on record: CCL21 30 seconds; for ζ PKC translocation to the plasma membrane induced by CCL21: lymphocytes, 30 min pretreatment. Here is the method: ζ PKC intracellular distribution. The assay was performed as previously described. Briefly, lymphocytes were stimulated under stirring with agonists at 37° C. Stimulation was stopped by diluting the cells in a 10 times larger volume of ice-cold PBS. Cells, resuspended in 1 ml of ice-cold PBS containing 8% sucrose, containing the Complete™ protease inhibitor cocktail from Roche, were sonicated and the homogenates were centrifuged at 800×g/10 min to remove nuclei and unbroken cells. The postnuclear supernatant was loaded on discontinuous sucrose gradient (50% sucrose, 30% sucrose) and centrifuged for 120 min. at 100,000×g. The light membrane fraction (plasma membrane) was collected in the 30% layer. Following SDS-PAGE on 10% acrylamide, proteins were electroblotted on nitrocellulose filters, probed with rabbit polyclonal antibodies anti ζ PKC (Santa Cruz Biotechnology), followed by goat polyclonal anti-rabbit HRP conjugated (Sigma) and developed using ECL (Amersham).

Assay [5] relates to lymphocyte rolling and arrest on PP-HEV. Nature of the assay: Intravital video microscopy of lymphocyte-high endothelial venule interaction in Peyer's patches. The format is in vivo, mouse. The method, then: Intravital video microscopy analysis of lymphocyte-high endothelial venule interaction in Peyer's patches. Lymphocytes (5×10^6/ml in DMEM without sodium bicarbonate supplemented with 20 mM Hepes, 5% FCS, pH7.1) were labeled with either CMFDA or CMTMR for 30 min at 37° C. 30×10^6 labeled cells were injected iv. In situ videomicroscopic analyses were carried out in high endothelial venules (HEV) in the secondary lymphoid organ Peyer's patch (PP) as previously described. Cell behavior was analyzed over a period of 20-30 min starting at 2 minutes after iv injection. Interactions of ≧1 s were considered significant and were scored. Cells were considered to be interacting whether they rolled, arrested or both. Lymphocytes that remained firmly adherent on venular wall for ≧10 s were considered arrested.

The test system of assay [6] is autoreactive, encephalitogenic T lymphocytes in inflamed brain microvessels. Nature of the assay: Intravital microscopy of Ag-stimulated lymphocyte recruitment in inflamed brain microvessels. Type of assay: in vivo. The settings on record: mouse model simulating human Multiple Sclerosis. The method, then: The RhoA derived peptides described in Example 1 were tested for their ability to inhibit Ag-stimulated lymphocyte (autoreactive, encephalitogenic T lymphocytes) recruitment in inflamed brain by looking in vivo cell behavior with intravital microscopy, as described in Example 1. This in vivo model simulates, in mouse, human Multiple Sclerosis.

Assay [7] has as its system Swiss 3T3 mouse fibroblasts. Nature of the assay: LPA-induced actin stress fibers and membrane ruffling in fibroblasts. The format is cell-based. The settings on record: 4 hours at 37° C. with peptide, then 10 min 25 ng/ml LPA. Here is the method:
Evaluation of actin stress fibers content. Swiss 3T3 mouse fibroblasts were maintained in DMEM containing 10% FCS for 6 days and then starved for 12 hours. Actin stress fibers content was evaluated in permeabilized cells with TRITC-labeled phalloidin. Analysis was performed by using a Zeiss LSM confocal microscope.

The test system of assay [8] is LFA-1 high affinity state. As to the kind of experiment: Measurement of LFA-1 high affinity state (soluble 125I-ICAM-1 binding). The format is cell-based, mouse. The settings on record: 1 μM CCL21 2 min. The method, then: Measurement of LFA-1 high affinity state. Induction of LFA-1 high affinity state by CCL21 was evaluated by measuring binding of soluble ^125I-ICAM-1. Briefly, ICAM-1 was iodinated with ^125NaI by the Chizzonite method. The binding assay was performed at 37° C. in a 500 μl Eppendorf tube. 40 μl of lymphocyte suspension (5×10^7/ml in PBS containing 1 mg/ml BSA, 2 mM MgCl2, 1 mM CaCl2, 1 mM D-glucose, pH 7.2) were directly layered on […] oil cushion of 2/1 dibutyl/dioctyl phthalates. Lymphocytes were stimulated with 10 μl of PBS containing chemokine (6 μM) and ^125I-ICAM-1 (5×10^5 CPM corresponding approximately to 2 μg of ^125I-ICAM-1). The binding reaction was stopped by rapid centrifugation in microfuge. Radioactivity bound to lymphocytes was counted with a gamma counter.

Assay [9] has as its target T2, RhoA binding to Rhotekin-RBD (Homo sapiens, UniProt Q9BST9).
T2 sequence (Q9BST9 17-98 limits assumed): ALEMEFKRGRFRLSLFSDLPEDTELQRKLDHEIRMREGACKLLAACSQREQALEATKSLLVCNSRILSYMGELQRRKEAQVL
As to the kind of experiment: Affinity-precipitation (pull-down) of GTP-Val14-RhoA with Rhotekin GST-RBD. The settings on record: 20 μg of domain, anti-RhoA immunoblot. The method, then: as §1

The subject of assay [10] is ζ PKC. Nature of the assay: Measurement of ζ PKC kinase activity. The format is cell-based. The settings on record: 150 nM Wortmannin or 30 μM LY294002, 30 min, lymphocytes. The method, then: Measurement of ζ PKC kinase activity. The assay was performed as previously described. Briefly, lymphocytes were stimulated under stirring with agonists at 37° C. Stimulation was stopped with lysis buffer containing 50 mM Tris-HCl, pH 7.5, 1% Triton X-100, 0.01% SDS, 150 mM NaCl, 50 mM NaF, 10 mM sodium pyrophosphate, 1 μM phenylarsine oxide, containing the Complete™ protease inhibitor cocktail from Roche. After 30 min. on ice, lysates were centrifuged at 16,000 g for 1 min. to remove cell debris. Rabbit polyclonal anti ζ PKC (1 μg) or control rabbit serum was added to equal amount of cell lysates, followed by immunoprecipitation with trisacryl protein A. Equal amounts of ζ PKC were immunoprecipitated as confirmed by Western blot analysis. After four washing, immunoprecipitates were subjected to the kinase reaction for 30 min. at 30° C. in 50 μl of kinase buffer containing 0.5 mM EGTA, 10 mM MgC2, 20 mM HEPES, pH 7.4, 50 μM ATP, 5 μCi [γ-^32P]ATP and 2 μg myelin basic protein (MBP) as a substrate. The reaction was stopped by addition of 5% TCA and the reaction mixture was filtered through phosphocellulose paper. After four rinses with 1% phosphoric acid radioactivity on the filter was determined at a scintillation counter.

The mark [11] stands for this setting: pretreated lymphocytes injected iv.

As to “P1-RhoA 23-40: Penetratin-1 fused through a glycine to human RhoA aa 23-40 (IVFSKDQFPEVYVPTVFE, Domain I); aa 34”, the “binding of RhoA to Citron” value in assay [1] is listed as “blocked”. In assay [2], the “rapid adhesion induced by CCL21 on high density of ICAM-1” value is “blocked adhesion triggering in a dose-dependent manner” and the “rapid adhesion induced by CCL21 on low density of ICAM-1” value is listed as “prevented in a dose-dependent manner”. The “LFA-1 rapid lateral mobility (generation of LFA-1 clusters) induced by CCL21” value (from here on “LFA-1 rapid lateral mobility”) in assay [3] is recorded as “prevented”. Further, the “blockade of ζ PKC translocation to the plasma membrane, densitometric analysis” value in assay [4] (100 μM) is recorded as “about 82%”. Also, in assay [4], the “ζ PKC translocation to the plasma membrane induced by CCL21” value (“ζ PKC translocation … by CCL21” below) was “blocked”. Besides, the “percentage of cells displaying only rolling on PP-HEV” value in [5] (50 μM pretreatment) is recorded as “increased”. Besides, the “inhibition of stable arrest of lymphocytes on PP-HEV” value in [5] (50 μM pretreatment, P<0.01) is given as “about 75%”. Further, in assay [5] (pretreated lymphocytes injected iv, 50 μM), the “lymphocyte tethering and interaction with vessels” value is reported as “did not influence”. The “recruitment/arrest of Ag-stimulated lymphocytes in inflamed brain microvessels” value in [6] is “blocks recruitment”.
Consider “P1: Plasma membrane translocating sequence from third helix of Antennapedia homeodomain, RQIKIWFQNRRMKWKK; control peptide [reference compound]”, for which the “accumulation of actin stress fibers upon LPA triggering” value in assay [7] is given as “completely ineffective”. Further, in assay [2], the “rapid adhesion induced by CCL21 on high density of ICAM-1” value is “ineffective” and the “rapid adhesion induced by CCL21 on low density of ICAM-1” value is given as “unable to block”. Moreover, the “LFA-1 high affinity state triggering by CCL21” value in [8] is reported as “did not prevent”. In assay [3], the “LFA-1 rapid lateral mobility” value is “did not prevent”. In [4], the “ζ PKC translocation … by CCL21” value is recorded as “did not prevent”. In addition, the “rolling and arrest of circulating lymphocytes on PP-HEV” value (“rolling and arrest” below) in assay [5] (setting [11]) was “did not affect”.
On to “P1-RhoA 75-92: Penetratin-1 fused through a glycine to human RhoA aa 75-92 (PDTDVILMCFSIDSPDSL, Domain II); aa 34”, for which the “binding of RhoA to Rhotekin” value in assay [9] was “blocked”. In assay [2], the “rapid adhesion induced by CCL21 on high density of ICAM-1” value is given as “ineffective” and the “rapid adhesion induced by CCL21 on low density of ICAM-1” value is on record as “unable to block”. Further, in [3], the “LFA-1 rapid lateral mobility” value is “did not prevent”. For the same molecule, in [4], the “ζ PKC translocation … by CCL21” value is recorded as “did not prevent”. The “rolling and arrest” value in assay [5] (setting [11]) is listed as “did not affect”.
With `COC[C@H]1OC(=O)c2coc3c2[C@@]1(C)C1=C(C3=O)[C@@H]2CCC(=O)[C@@]2(C)C[C@H]1OC(C)=O` [Wortmannin], the “prevention of the increase of ζ PKC kinase activity induced by CCL21” value in [10] was “about 51%”.
Regarding `O=c1cc(N2CCOCC2)oc2c(-c3ccccc3)cccc12` [LY294002], the “prevention of the increase of ζ PKC kinase activity induced by CCL21” value in [10] is recorded as around 62%.
For the molecule `C[C@@H](N)[C@H]1CC[C@H](C(=O)Nc2ccncc2)CC1` [Y27632, reference compound], in assay [2], the “rapid adhesion induced by CCL21 on high density of ICAM-1” value is listed as “did not inhibit” and the “rapid adhesion induced by CCL21 on low density of ICAM-1” value is “did not inhibit”. For the same molecule, the “LFA-1 high affinity state triggering by CCL21” value in assay [8] is recorded as “neither LFA-1 affinity triggering (FIG. 2H) nor induction of lateral mobility were blocked”. The “LFA-1 rapid lateral mobility” value in assay [3] was “neither LFA-1 affinity triggering (FIG. 2H) nor induction of lateral mobility were blocked”. Moreover, the “rolling and arrest” value in assay [5] (setting [11]) was “rolled and adhered normally”.
